Laboratory results reported in patent US8932842B2, “Aminopyridine dimer compounds, compositions and related methods for neuronal nitric oxide synthase inhibition” (Northwestern University, priority 2009, dated 2015).
“Also recorded” adds a separate entry of the source. Like-named read-outs stand apart in the source and are kept apart here.

Experiments:
[1] = molecular target: T1, rat nNOS (Rattus norvegicus, UniProt P29476); experiment: NOS enzyme assay (hemoglobin capture), nNOS; assay type: biochemical; conditions: for Ki: rat nNOS; for activity/potency for nNOS in words: purified enzyme assay; for n/e: ratio of Ki (eNOS) to Ki (nNOS); for n/e / n/i: Tables 1-3; for n/i: ratio of Ki (iNOS) to Ki (nNOS)
T1 construct: made in house; host or cells: E. coli

[2] = molecular target: T2, murine macrophage iNOS (Mus musculus, UniProt P29477); experiment: NOS enzyme assay (hemoglobin capture), iNOS; assay type: biochemical
T2 construct: made in house; host or cells: E. coli

[3] = molecular target: T3, bovine eNOS (Bos taurus, UniProt P29473); experiment: NOS enzyme assay (hemoglobin capture), eNOS; assay type: biochemical
T3 construct: made in house; host or cells: E. coli

[4] = molecular target: T4, nNOS in 293T cells overexpressing nNOS (293T/nNOS cells) (Rattus norvegicus, UniProt P29476); experiment: Cell-based assay: inhibition of nNOS in 293T/nNOS cells, nitrite by Griess reagent; conditions: for membrane penetration ability / bioavailability based on cell-based assay: inferred from 293T/nNOS cell-based assay; for activity in the cell-based assay in words: 293T/nNOS cells, FIG. 4
T4 construct: expressed in transfected cells; host or cells: 293T cells (293T/nNOS)

[5] = Table 4, read-out: Ki (μM) nNOS
[6] = Table 4, read-out: Ki (μM) iNOS
[7] = Table 4, read-out: Ki (μM) eNOS
[8] = Ki calculated from directly measured IC50 values, read-out: Ki nNOS
[9] = Ki calculated from directly measured IC50 values, read-out: Ki iNOS
[10] = Ki calculated from directly measured IC50 values, read-out: Ki eNOS

activity/potency for nNOS in words [1]	Ki [1, 8] [µM]	Compound	Selectivity n/e ([1]; Table 4)	Selectivity n/i ([1]; Table 4)	Ki [1, 5] [µM]	Ki [2, 6] [µM]	Ki [3, 7] [µM]	also measured
		Cc1cc(N)nc(CCc2ccc(CCCN)c(CCc3cc(C)cc(N)n3)c2)c1 [HH032]	303	199	0.11	21.9	33.4	
		Cc1cc(N)nc(CCc2cc(CCc3cc(C)cc(N)n3)cc(N3CCN(C)CC3)c2)c1 [HH027]	17	24	5.75	138	97.4	
inactive	0.167	Cc1cc(N)nc(CCc2ccc(CCc3cc(C)nc(N)c3)cc2)c1 [3f, 4-(4-(2-(6-Amino-4-methylpyridin-2-yl)ethyl)phenethyl)-6-methylpyridin-2-amine]						
		Cc1cc(N)nc(CCc2cc(CCCN)cc(CCc3cc(C)cc(N)n3)c2)c1 [HH026]	22	60	0.54	32.5	12.1	
		Cc1cc(N)nc(CCc2cc(CCc3cc(C)cc(N)n3)cc(N3CCNCC3)c2)c1 [HH025]	30	17	2.1	36.7	63.2	
little activity	> 0.5	Cc1cc(N)nc(CCc2ccc3ccc(CCc4cc(C)nc(N)c4)cc3c2)c1 [3d, 4-(2-(7-(2-(6-Amino-4-methylpyridin-2-yl)ethyl)naphthalen-2-yl)ethyl)-6-methylpyridin-2-amine]						
poor activity	> 11.5	Cc1cc(C)nc(NCc2ccc3cc(CNc4cc(C)cc(C)n4)ccc3c2)c1 [3a, N,N′-(Naphthalene-2,6-diylbis(methylene))bis(4,6-dimethylpyridin-2-amine)]						
		Cc1cc(N)nc(CCc2cc(CN)cc(CCc3cc(C)cc(N)n3)c2)c1 [HH030, 6,6′-((5-(aminomethyl)-1,3-phenylene)bis(ethane-2,1-diyl))bis(4-methylpyridin-2-amine)]	221	119	0.053	6.31	11.7	
		Cc1cc(N)nc(CCc2cncc(CCc3cc(C)cc(N)n3)c2)c1 [3j, 6,6′-(2,2′-(Pyridine-3,5-diyl)bis(ethane-2,1-diyl))bis(4-methylpyridin-2-amine)]						membrane penetration ability / bioavailability based on cell-based assay [4]: very good membrane penetration ability; also recorded: improved bioavailability
		Cc1cc(N)nc(CCc2cccc(CCc3cc(C)cc(N)n3)c2)c1 [3g, 6,6′-(2,2′-(1,3-Phenylene)bis(ethane-2,1-diyl))bis(4-methylpyridin-2-amine)]						activity in the cell-based assay in words [4]: almost no activity
poor activity	2.25	Cc1cc(CCc2cccc(CCc3cc(C)nc(N)c3)c2)cc(N)n1 [3i, 4,4′-(2,2′-(1,3-Phenylene)bis(ethane-2,1-diyl))bis(6-methylpyridin-2-amine)]						
	0.102	Cc1cc(N)nc(CCc2ccc3ccc(CCc4cc(C)cc(N)n4)cc3c2)c1 [3c, 6,6′-(2,2′-(Naphthalene-2,7-diyl)bis(ethane-2,1-diyl))bis(4-methylpyridin-2-amine)]						n/e [1]: 14.9; n/i [1]: 20.1; Ki [2, 9]: 2.05 µM; Ki [3, 10]: 1.52 µM

Compound	activity/potency for nNOS in words [1]	Ki [1, 8] [µM]	Selectivity n/e ([1]; Table 4)	Selectivity n/i ([1]; Table 4)	Ki [1, 5] [µM]	Ki [2, 6] [µM]	Ki [3, 7] [µM]	also measured
Cc1cc(N)nc(CCc2cc(C#N)cc(CCc3cc(C)cc(N)n3)c2)c1 [HH006, 3,5-bis(2-(6-amino-4-methylpyridin-2-yl)ethyl)benzonitrile]	good potency and selectivity		472	239	0.056	13.4	26.4	
Cc1cc(N)nc(CCc2ccc3cc(CCc4cc(C)cc(N)n4)ccc3c2)c1 [3b, 6,6′-(2,2′-(Naphthalene-2,6-diyl)bis(ethane-2,1-diyl))bis(4-methylpyridin-2-amine)]		0.241						selectivity for nNOS over eNOS [1]: 7 fold; selectivity for nNOS over iNOS [1]: 9 fold; n/e [1]: 7.22; n/i [1]: 9.42; Ki [2, 9]: 2.27 µM; Ki [3, 10]: 1.74 µM
Cc1cc(N)nc(CCc2ccc(CCc3cc(C)cc(N)n3)cc2)c1 [3e]		0.097						selectivity for nNOS over eNOS [1]: 25 fold; n/e [1]: 24.6; n/i [1]: 24.8; Ki [2, 9]: 2.41 µM; Ki [3, 10]: 2.39 µM
Cc1cc(N)nc(CCc2cncc(CCc3cc(C)nc(N)c3)c2)c1 [3k, 4-(2-(5-(2-(6-Amino-4-methylpyridin-2-yl)ethyl)pyridin-3-yl)ethyl)-6-methylpyridin-2-amine]	highly potent	0.103						membrane penetration ability / bioavailability based on cell-based assay [4]: very good membrane penetration ability; selectivity for nNOS over eNOS [1]: 156 fold; n/e [1]: 156; n/i [1]: 19; Ki [2, 9]: 1.91 µM; Ki [3, 10]: 16.1 µM
Cc1cc(N)nc(CCc2cccc(CCc3cc(C)nc(N)c3)c2)c1 [3h, 4-(3-(2-(6-Amino-4-methylpyridin-2-yl)ethyl)phenethyl)-6-methylpyridin-2-amine]	highly potent	0.038						activity in the cell-based assay in words [4]: almost no activity; selectivity for nNOS over eNOS [1]: 111 fold; selectivity for nNOS over iNOS [1]: 71.8 fold; n/e [1]: 111; n/i [1]: 71.8; Ki [2, 9]: 2.73 µM; Ki [3, 10]: 4.2 µM
